Data as given in US20250188092A1, “RIFAMYCIN ANALOGS” (THE REGENTS OF THE UNIVERSITY OF MICHIGAN, priority 2021, published 2025).
In brackets after ≈: the same amount, converted by molar mass. Read-outs that look alike come from different tables or passages of the source.

Legend:
[1] = test system: non-replicating cultures of M. tuberculosis H37Rv transformed with lux ABCDE; assay: microbe, parasite or virus in culture; format: cell-based, Mycobacterium tuberculosis; conditions: for MIC90: ≥90% reduction in luminescence, read-out: MIC90 LORA; for MIC90 LORA/MABA: ratio of LORA MIC90 to MABA MIC90
[2] = test system: M. tuberculosis transformed with luxABCDE; assay: microbe, parasite or virus in culture; format: cell-based, Mycobacterium tuberculosis; conditions: for MBC: ≥99% reduction in luminescence, read-out: MBC99 Day 7 (Lux Assay) MBC
[3] = Mycobacterium tuberculosis, H37RV
[4] = Mycobacterium tuberculosis, 168 h

CO[C@H]1/C=C/O[C@@]2(C)Oc3c(C)c(O)c4c(=O)c(c5oc6cccc(OCc7ccc(CN8CCN(C)CC8)cc7)c6nc-5c4c3C2=O)NC(=O)/C(C)=C\C=C\[C@H](C)[C@H](O)[C@@H](C)[C@@H](O)[C@@H](C)[C@H](OC(C)=O)[C@@H]1C [Compound 16e, (7S,9E,11S,12R,13S,14R,15R,16R,17S,18S,19E,21Z)-2,15,17-trihydroxy-11-methoxy-3,7,12,14,16,18,22-heptamethyl-32-({4-[(4-methylpiperazin-1-yl)methyl]phenyl}methoxy)-6,23,37-trioxo-8,27,38-trioxa-24,34-diazahexacyclo[23.11.1.1^4,7.0^5,36.0^26,35.0^28,33]octatriaconta-1,3,5(36)9,19,21,25,28,30,32,34-undecaen-13-yl acetate]
MIC90 LORA Rel to RMP [1]: 1.3 | MIC90 [1, 3]: 0.036 µM | MIC90 LORA/MABA [1]: 5.6 | MBC99 Day 7 (Lux Assay) MBC Rel to RMP [2]: 0.14 | MBC [2, 4]: 0.06 µM

CO[C@H]1/C=C/O[C@@]2(C)Oc3c(C)c(O)c4c(=O)c(c5oc6cc(N7CCN(C(=O)OC(C)(C)C)CC7)cc(C)c6nc-5c4c3C2=O)NC(=O)/C(C)=C\C=C\[C@H](C)[C@H](O)[C@@H](C)[C@@H](O)[C@@H](C)[C@H](OC(C)=O)[C@@H]1C [Compound 26i, tert-Butyl 4-[(7S,9E,11S,12R,13S,14R,15R,16R,17S,18S,19E,21Z)-13-(acetyloxy)-2,15,17-trihydroxy-11-methoxy-3,7,12,14,16,18,22,32-octamethyl-6,23,37-trioxo-8,27,38-trioxa-24,34-diazahexacyclo[23.11.1.1^4,7.0^5,36.0^26,35.0^28,33]octatriaconta-1(36)2,4,9,19,21,25,28,30,32,34-undecaen-30-yl]piperazine-1-carboxylate]
MIC90 LORA Rel to RMP [1]: 0.05 | MIC90 [1, 3]: 0.0093 µM (≈ 0.00914 µg/mL) | MIC90 LORA/MABA [1]: 2.0 | MBC99 Day 7 (Lux Assay) MBC Rel to RMP [2]: 0.10 | MBC [2, 4]: 0.047 µM (≈ 0.0462 µg/mL)

CO[C@H]1/C=C/O[C@@]2(C)Oc3c(C)c(O)c4c(=O)c(c5oc6cc(N7CCN(CC(C)C)CC7)cc(OCc7ccc(CN8CCN(C)CC8)cc7)c6nc-5c4c3C2=O)NC(=O)/C(C)=C\C=C\[C@H](C)[C@H](O)[C@@H](C)[C@@H](O)[C@@H](C)[C@H](OC(C)=O)[C@@H]1C [Compound 17p, (7S,9E,11S,12R,13S,14R,15R,16R,17S,18S,19E,21Z)-2,15,17-trihydroxy-11-methoxy-3,7,12,14,16,18,22-heptamethyl-32-({4-[(4-methylpiperazin-1-yl)methyl]phenyl}methoxy)-30-[4-(2-methylpropyl)piperazin-1-yl]-6,23,37-trioxo-8,27,38-trioxa-24,34-diazahexacyclo-[23.11.1.1^4,7.0^5,36.0^26,35.0^28,33]octatriaconta-1,3,5(36)9,19,21,25,28,30,32,34-undecaen-13-yl acetate]
MIC90 [1, 3]: 0.035 µM | MIC90 LORA/MABA [1]: 3.7 | MBC99 Day 7 (Lux Assay) MBC Rel to RMP [2]: 0.20 | MBC [2, 4]: 0.092 µM

CO[C@H]1/C=C/O[C@@]2(C)Oc3c(C)c(O)c4c(=O)c(c5oc6cc(N7CCN(C(=O)c8ccc9occc9c8)CC7)cc(OCc7ccc(CN8CCOCC8)cc7)c6nc-5c4c3C2=O)NC(=O)/C(C)=C\C=C\[C@H](C)[C@H](O)[C@@H](C)[C@@H](O)[C@@H](C)[C@H](OC(C)=O)[C@@H]1C [Compound 17s, (7S,9E,11S,12R,13S,14R,15R,16R,17S,18S,19E,21Z)-30-{4-[(1-benzofuran-5-yl)carbonyl]piperazin-1-yl}-2,15,17-trihydroxy-11-methoxy-3,7,12,14,16,18,22-heptamethyl-32-{[4-(morpholin-4-ylmethyl)phenyl]methoxy}-6,23,37-trioxo-8,27,38-trioxa-24,34-diazahexacyclo[23.11.1.1^4,7.0^5,36.0^26,35.0^28,33]octatriaconta-1,3,5(36)9,19,21,25,28,30,32,34-undecaen-13-yl acetate]
MIC90 LORA Rel to RMP [1]: 0.60 | MIC90 [1, 3]: 0.03 µM | MIC90 LORA/MABA [1]: 1.7 | MBC99 Day 7 (Lux Assay) MBC Rel to RMP [2]: 0.19 | MBC [2, 4]: 0.084 µM

CO[C@H]1/C=C/O[C@@]2(C)Oc3c(C)c(O)c4c(=O)c(c5oc6cc(C)cc(N7CCN(CCn8ccnc8)CC7)c6nc-5c4c3C2=O)NC(=O)/C(C)=C\C=C\[C@H](C)[C@H](O)[C@@H](C)[C@@H](O)[C@@H](C)[C@H](OC(C)=O)[C@@H]1C [Compound 30e, (7S,9E,11S,12R,13S,14R,15R,16R,17S,18S,19E,21Z)-2,15,17-Trihydroxy-32-{4-[3-(1H-imidazol-1-yl)ethyl]piperazin-1-yl}-11-methoxy-3,7,12,14,16,18,22,30-octamethyl-6,23,37-trioxo-8,27,38-trioxa-24,34-diazahexacyclo[23.11.1.1^4,7.0^5,36.0^26,35.0^28,33]octatriaconta-1(36)2,4,9,19,21,25,28,30,32,34-undecaen-13-yl acetate]
MIC90 LORA Rel to RMP [1]: 0.87 | MIC90 [1, 3]: 0.18 µM | MIC90 LORA/MABA [1]: 2.1 | MBC99 Day 7 (Lux Assay) MBC Rel to RMP [2]: 1.06 | MBC [2, 4]: 0.49 µM

CCC(=O)N1CCN(c2cc(C)c3nc4c5c6c7c(C)c(O)c5c(=O)c(c-4oc3c2)NC(=O)/C(C)=C\C=C\[C@H](C)[C@H](O)[C@@H](C)[C@@H](O)[C@@H](C)[C@H](OC(C)=O)[C@H](C)[C@@H](OC)/C=C/O[C@@](C)(O7)C6=O)CC1 [Compound 26e, (7S,9E,11S,12R,13S,14R,15R,16R,17S,18S,19E,21Z)-2,15,17-Trihydroxy-11-methoxy-3,7,12,14,16,18,22,32-octamethyl-6,23,37-trioxo-30-(4-propanoylpiperazin-1-yl)-8,27,38-trioxa-24,34-diazahexacyclo[23.11.1.1^4,7.0^5,36.0^26,35.0^28,33]octatriaconta-1(36)2,4,9,19,21,25,28,30,32,34-undecaen-13-yl acetate]
MIC90 [1, 3]: > 0.02 µM | MBC99 Day 7 (Lux Assay) MBC Rel to RMP [2]: 0.19 | MBC [2, 4]: 0.087 µM

CO[C@H]1/C=C/O[C@@]2(C)Oc3c(C)c(O)c4c(=O)c(c5oc6cc(N7CCC(C(=O)O)CC7)cc(C)c6nc-5c4c3C2=O)NC(=O)/C(C)=C\C=C\[C@H](C)[C@H](O)[C@@H](C)[C@@H](O)[C@@H](C)[C@H](OC(C)=O)[C@@H]1C [Compound 29f, 1-[(7S,9E,11S,12R,13S,14R,15R,16R,17S,18S,19E,21Z)-13-(acetyloxy)-2,15,17-trihydroxy-11-methoxy-3,7,12,14,16,18,22,32-octamethyl-6,23,37-trioxo-8,27,38-trioxa-24,34-diazahexacyclo-[23.11.1.1^4,7.0^5,36.0^26,35.0^28,33]octatriaconta-1,3,5(36)9,19,21,25,28,30,32,34-undecaen-30-yl]piperidine-4-carboxylic acid]
MIC90 LORA Rel to RMP [1]: 40 | MIC90 [1, 3]: 1.07 µM (≈ 0.987 µg/mL) | MIC90 LORA/MABA [1]: 4.5 | MBC [2, 4]: > 0.1 µM

CO[C@H]1/C=C/O[C@@]2(C)Oc3c(C)c(O)c4c(=O)c(c5oc6cc(N7CCN(CC(C)C)CC7)cc(O)c6nc-5c4c3C2=O)NC(=O)/C(C)=C\C=C\[C@H](C)[C@H](O)[C@@H](C)[C@@H](O)[C@@H](C)[C@H](OC(C)=O)[C@@H]1C [RLZ, rifalazil, reference compound]
MIC90 LORA Rel to RMP [1]: 0.01 | MIC90 [1, 3]: 0.0022 µM (≈ 0.00207 µg/mL) | MIC90 LORA/MABA [1]: 2.0 | MBC99 Day 7 (Lux Assay) MBC Rel to RMP [2]: 0.07 | MBC [2, 4]: 0.03 µM (≈ 0.0282 µg/mL)

CO[C@H]1/C=C/O[C@@]2(C)Oc3c(C)c(O)c4c(=O)c(c5oc6cc(N7CCN(C(=O)c8ccccc8)CC7)cc(OCc7ccc(CN8CCOCC8)cc7)c6nc-5c4c3C2=O)NC(=O)/C(C)=C\C=C\[C@H](C)[C@H](O)[C@@H](C)[C@@H](O)[C@@H](C)[C@H](OC(C)=O)[C@@H]1C [Compound 17m, (7S,9E,11S,12R,13S,14R,15R,16R,17S,18S,19E,21Z)-30-(4-benzoylpiperazin-1-yl)-2,15,17-trihydroxy-1-methoxy-3,7,12,14,16,18,22-heptamethyl-32-{[4-(morpholin-4-ylmethyl)phenyl]methoxy}-6,23,37-trioxo-8,27,38-trioxa-24,34-diazahexacyclo-[23.11.1.1^4,7.0^5,36.0^26,35.0^28,33]octatriaconta-1,3,5(36)9,19,21,25,28,30,32,34-undecaen-13-yl acetate]
MIC90 LORA Rel to RMP [1]: 1.4 | MIC90 [1, 3]: 0.072 µM | MIC90 LORA/MABA [1]: 4.2 | MBC99 Day 7 (Lux Assay) MBC Rel to RMP [2]: 0.48 | MBC [2, 4]: 0.217 µM

CO[C@H]1/C=C/O[C@@]2(C)Oc3c(C)c(O)c4c(=O)c(c5oc6cc(N7CCN(C(=O)c8ccc(-c9ccc(C(N)=O)cc9)cc8)CC7)cc(OCc7ccc(CN8CCOCC8)cc7)c6nc-5c4c3C2=O)NC(=O)/C(C)=C\C=C\[C@H](C)[C@H](O)[C@@H](C)[C@@H](O)[C@@H](C)[C@H](OC(C)=O)[C@@H]1C [Compound 17t, (7S,9E,11S,12R,13S,14R,15R,16R,17S,18S,19E,21Z)-30-(4-{[4-(4-carbamoylphenyl)-phenyl]carbonyl}piperazin-1-yl)-2,15,17-trihydroxy-11-methoxy-3,7,12,14,16,18,22-heptamethyl-32-{[4-(morpholin-4-ylmethyl)phenyl]methoxy}-6,23,37-trioxo-8,27,38-trioxa-24,34-diazahexacyclo[23.11.1.1^4,7.0^5,36.0^26,35.0^28,33]octatriaconta-1,3,5(36)9,19,21,25,28,30,32,34-undecaen-13-yl acetate]
MIC90 LORA Rel to RMP [1]: 1.2 | MIC90 [1]: 0.059 µM | MIC90 LORA/MABA [1]: 1.8 | MBC99 Day 7 (Lux Assay) MBC Rel to RMP [2]: 0.12 | MBC [2]: 0.086 µM
